Measurements taken from PubChem BioAssay (NCI).
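Exposure lasted 48 hours, with cells grown in 96-well plates and compounds tested at five concentrations. At the TGI there is no net growth.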

Columns and labels:
Experiment in all cases: NCI-60 cell line screen, 48 h
MOLT-4 leukemia = system: MOLT-4 leukemia
SK-MEL-28 melanoma = system: SK-MEL-28 melanoma
OVCAR-5 ovarian = system: OVCAR-5 ovarian
NCI-H522 lung = system: NCI-H522 lung
MDA-MB-435 = system: MDA-MB-435
NCI-H23 lung = system: NCI-H23 lung
SK-MEL-2 melanoma = system: SK-MEL-2 melanoma
UACC-257 melanoma = system: UACC-257 melanoma
T-47D breast = system: T-47D breast
TK-10 renal = system: TK-10 renal
HCT-116 colon = system: HCT-116 colon
EKVX NSCLC = system: EKVX NSCLC
ACHN renal = system: ACHN renal
HCC-2998 colon = system: HCC-2998 colon
UO-31 renal = system: UO-31 renal
MDA-MB-231 breast = system: MDA-MB-231 breast
OVCAR-3 ovarian = system: OVCAR-3 ovarian
IGROV1 ovarian = system: IGROV1 ovarian
PC-3 prostate = system: PC-3 prostate
COLO 205 colon = system: COLO 205 colon
SF-268 CNS = system: SF-268 CNS
LOX IMVI melanoma = system: LOX IMVI melanoma
RXF 393 renal = system: RXF 393 renal
786-0 renal = system: 786-0 renal
HCT-15 colon = system: HCT-15 colon
KM12 colon = system: KM12 colon
OVCAR-4 ovarian = system: OVCAR-4 ovarian
K-562 leukemia = system: K-562 leukemia
U251 CNS = system: U251 CNS
NCI/ADR-RES ovarian = system: NCI/ADR-RES ovarian
A498 renal = system: A498 renal
OVCAR-8 ovarian = system: OVCAR-8 ovarian
MCF7 breast = system: MCF7 breast
CCRF-CEM leukemia = system: CCRF-CEM leukemia
SNB-75 CNS = system: SNB-75 CNS
NCI-H226 lung = system: NCI-H226 lung
SNB-19 CNS = system: SNB-19 CNS
HS 578T breast = system: HS 578T breast
MDA-N = system: MDA-N
RPMI-8226 leukemia = system: RPMI-8226 leukemia
SF-295 CNS = system: SF-295 CNS
CAKI-1 renal = system: CAKI-1 renal
SK-OV-3 ovarian = system: SK-OV-3 ovarian
NCI-H460 lung = system: NCI-H460 lung
SF-539 CNS = system: SF-539 CNS
DU-145 prostate = system: DU-145 prostate
UACC-62 melanoma = system: UACC-62 melanoma
SN12C renal = system: SN12C renal
SK-MEL-5 melanoma = system: SK-MEL-5 melanoma
HT29 colon = system: HT29 colon
M14 melanoma = system: M14 melanoma
A549 NSCLC = system: A549 NSCLC
HOP-62 NSCLC = system: HOP-62 NSCLC
BT-549 breast = system: BT-549 breast
SW-620 colon = system: SW-620 colon
HOP-92 NSCLC = system: HOP-92 NSCLC
MALME-3M melanoma = system: MALME-3M melanoma
HL-60(TB) leukemia = system: HL-60(TB) leukemia
SR leukemia = system: SR leukemia

Measured: TGI

CC(C)CC1C(=O)OC(C)(C)OC1=O
not listed: HOP-92 NSCLC | MALME-3M melanoma | HL-60(TB) leukemia | SR leukemia
> 100 µM: all other assays above

COc1ccccc1OC/C(N=Cc1cccnc1)=N/NC(=O)c1ccncc1
not listed: UO-31 renal | SN12C renal | SK-MEL-5 melanoma | SR leukemia
> 100 µM: all other assays above

C1=C(c2ccccc2)NC2=N[C@H]3CCCC[C@@H]3N2C1c1ccccc1 (stereo partly drawn)
26.1 µM: U251 CNS
72.2 µM: K-562 leukemia
51.7 µM: SF-268 CNS
22.9 µM: KM12 colon
22.1 µM: TK-10 renal
25.7 µM: SF-295 CNS
30.2 µM: MDA-MB-231 breast | A498 renal
26.3 µM: OVCAR-5 ovarian
39.3 µM: SR leukemia
32 µM: SK-MEL-2 melanoma
24.3 µM: SNB-75 CNS
26.6 µM: MALME-3M melanoma | ACHN renal
28.6 µM: UACC-62 melanoma
29.3 µM: EKVX NSCLC | SK-OV-3 ovarian
25.3 µM: NCI-H460 lung
42.2 µM: HL-60(TB) leukemia
49.8 µM: RPMI-8226 leukemia
30.7 µM: 786-0 renal
41.2 µM: HS 578T breast
28.3 µM: MOLT-4 leukemia
29 µM: MDA-N
24.8 µM: UO-31 renal
26.4 µM: MDA-MB-435
27.7 µM: UACC-257 melanoma | SNB-19 CNS
27.4 µM: SK-MEL-28 melanoma | OVCAR-8 ovarian
29.6 µM: LOX IMVI melanoma | CAKI-1 renal | DU-145 prostate
24 µM: BT-549 breast
28.7 µM: NCI/ADR-RES ovarian
28.4 µM: HCC-2998 colon
26 µM: IGROV1 ovarian | SW-620 colon
25.5 µM: M14 melanoma
43.4 µM: CCRF-CEM leukemia
20.2 µM: HCT-116 colon
28.9 µM: NCI-H226 lung
22.2 µM: OVCAR-4 ovarian
14.8 µM: HT29 colon
23.9 µM: PC-3 prostate
27.9 µM: SK-MEL-5 melanoma
25.2 µM: HOP-92 NSCLC | COLO 205 colon
23.5 µM: HCT-15 colon
35.5 µM: T-47D breast
25.8 µM: NCI-H23 lung | OVCAR-3 ovarian

O=[N+]([O-])/C(C(Cl)=C(Cl)Cl)=C(\NCc1ccccc1)Sc1ccccc1
75.4 µM: OVCAR-4 ovarian
40.1 µM: NCI-H23 lung
57.4 µM: SF-268 CNS
63.3 µM: SNB-75 CNS
33.3 µM: MALME-3M melanoma
69.7 µM: NCI/ADR-RES ovarian
57.1 µM: HOP-62 NSCLC
34.5 µM: OVCAR-3 ovarian
62.2 µM: A498 renal
36.8 µM: SK-MEL-28 melanoma
26.6 µM: LOX IMVI melanoma
41 µM: SF-295 CNS
41.3 µM: MDA-MB-435
33.2 µM: COLO 205 colon
98.3 µM: NCI-H226 lung
84.7 µM: SK-MEL-2 melanoma
35 µM: HCT-15 colon
32.8 µM: OVCAR-8 ovarian
71.7 µM: T-47D breast
38.3 µM: UO-31 renal
36 µM: HS 578T breast
38.7 µM: BT-549 breast
36.9 µM: KM12 colon
42.6 µM: SW-620 colon
38.9 µM: SF-539 CNS
not listed: NCI-H522 lung | TK-10 renal | IGROV1 ovarian | RXF 393 renal | SK-MEL-5 melanoma | HOP-92 NSCLC | HL-60(TB) leukemia | SR leukemia
> 100 µM: all other assays above
